Reference: ChEMBL document CHEMBL4431386, “Potent selective monoamine oxidase B inhibition by maackiain, a pterocarpan from the roots of Sophora flavescens” (Bioorg Med Chem Lett, 2016)

Columns and labels:
[1] = biological target: T1, Amine oxidase [flavin-containing] B (Homo sapiens, UniProt P27338); assay: Reversible inhibition of recombinant human MAO-B expressed in baculovirus infected BTI insect cells assessed as residual activity at 1.5 uM preincubated for 10 mins followed by addition of 2 mM of benzylamine as substrate and further addition of 2 mM of benzylamine at the end of first reaction; conditions: read-out: Activity
T1 sequence (P27338 whole entry): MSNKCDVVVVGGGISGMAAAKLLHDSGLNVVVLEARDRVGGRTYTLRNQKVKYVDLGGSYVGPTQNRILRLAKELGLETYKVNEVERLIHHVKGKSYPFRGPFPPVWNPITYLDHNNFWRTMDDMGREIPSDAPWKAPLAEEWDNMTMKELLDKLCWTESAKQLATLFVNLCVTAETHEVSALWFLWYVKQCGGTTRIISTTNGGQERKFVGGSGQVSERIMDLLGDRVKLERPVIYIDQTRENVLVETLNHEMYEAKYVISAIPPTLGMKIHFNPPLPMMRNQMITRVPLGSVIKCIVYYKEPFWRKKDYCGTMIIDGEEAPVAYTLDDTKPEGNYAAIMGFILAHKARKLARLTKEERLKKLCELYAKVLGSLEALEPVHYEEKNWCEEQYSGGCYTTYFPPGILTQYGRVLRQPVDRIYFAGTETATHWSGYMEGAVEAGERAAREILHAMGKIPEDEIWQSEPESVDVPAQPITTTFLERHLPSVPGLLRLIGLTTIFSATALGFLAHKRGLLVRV

[2] = biological target: T1, Amine oxidase [flavin-containing] B; assay: Inhibition of recombinant human MAO-B expressed in baculovirus infected BTI insect cells assessed as residual activity at 1.5 uM preincubated for 10 mins followed by addition of 2 mM of benzylamine as substrate; conditions: read-out: Activity
[3] = biological target: T1, Amine oxidase [flavin-containing] B; assay: Inhibition of recombinant human MAO-B expressed in baculovirus infected BTI insect cells preincubated for 10 mins followed by addition of benzylamine as substrate; type: cell-based
[4] = biological target: T2, Amine oxidase [flavin-containing] A (Homo sapiens, UniProt P21397); assay: Inhibition of recombinant human MAO-A expressed in baculovirus infected BTI insect cells preincubated for 10 mins followed by addition of kynuramine as substrate
T2 sequence (P21397 whole entry): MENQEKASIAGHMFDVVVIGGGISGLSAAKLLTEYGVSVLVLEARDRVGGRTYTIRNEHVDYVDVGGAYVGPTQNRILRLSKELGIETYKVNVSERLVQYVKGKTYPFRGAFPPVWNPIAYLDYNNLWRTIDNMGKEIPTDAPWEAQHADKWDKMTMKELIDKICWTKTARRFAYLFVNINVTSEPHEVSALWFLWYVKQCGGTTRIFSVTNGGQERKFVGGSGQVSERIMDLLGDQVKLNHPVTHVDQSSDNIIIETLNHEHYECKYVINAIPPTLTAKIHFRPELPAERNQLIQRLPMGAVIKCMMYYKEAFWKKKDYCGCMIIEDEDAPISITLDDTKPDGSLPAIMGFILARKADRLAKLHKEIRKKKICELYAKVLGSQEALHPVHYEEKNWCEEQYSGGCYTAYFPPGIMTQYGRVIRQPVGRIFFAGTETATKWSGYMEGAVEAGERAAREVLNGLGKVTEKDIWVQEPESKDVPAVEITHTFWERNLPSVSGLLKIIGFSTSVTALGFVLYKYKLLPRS

Homo sapiens = organism: Homo sapiens; assay: Selectivity index, ratio of IC50 for recombinant human MAO-A expressed in baculovirus infected BTI insect cells to IC50 for recombinant human MAO-B expressed in baculovirus infected BTI insect cells
[5] = biological target: T1, Amine oxidase [flavin-containing] B; assay: Time-dependent inhibition of recombinant human MAO-B expressed in baculovirus infected BTI insect cells at 1.5 uM pretreated with compound up to 30 mins followed by addition of benzylamine as substrate
[6] = biological target: T1, Amine oxidase [flavin-containing] B; assay: Competitive inhibition of recombinant human MAO-B expressed in baculovirus infected BTI insect cells using benzylamine as substrate by Lineweaver-Burk plot analysis
[7] = biological target: T1, Amine oxidase [flavin-containing] B; assay: Reversible inhibition of recombinant human MAO-B expressed in baculovirus infected BTI insect cells assessed as residual activity at 20 uM preincubated for 10 mins followed by addition of 2 mM of benzylamine as substrate and further addition of 2 mM of benzylamine at the end of first reaction; conditions: read-out: Activity
[8] = biological target: T1, Amine oxidase [flavin-containing] B; assay: Time-dependent inhibition of recombinant human MAO-B expressed in baculovirus infected BTI insect cells at 20 uM pretreated with compound up to 30 mins followed by addition of benzylamine as substrate
[9] = biological target: T1, Amine oxidase [flavin-containing] B; assay: Inhibition of recombinant human MAO-B expressed in baculovirus infected BTI insect cells assessed as residual activity at 20 uM preincubated for 10 mins followed by addition of 2 mM of benzylamine as substrate; conditions: read-out: Activity
[10] = biological target: T3, Amine oxidase [flavin-containing] B (Mus musculus, UniProt Q8BW75); assay: Inhibition of mouse MAO-B preincubated for 15 mins followed by addition of kynuramine as substrate measured after 30 mins by fluorometric analysis
T3 sequence (Q8BW75 whole entry): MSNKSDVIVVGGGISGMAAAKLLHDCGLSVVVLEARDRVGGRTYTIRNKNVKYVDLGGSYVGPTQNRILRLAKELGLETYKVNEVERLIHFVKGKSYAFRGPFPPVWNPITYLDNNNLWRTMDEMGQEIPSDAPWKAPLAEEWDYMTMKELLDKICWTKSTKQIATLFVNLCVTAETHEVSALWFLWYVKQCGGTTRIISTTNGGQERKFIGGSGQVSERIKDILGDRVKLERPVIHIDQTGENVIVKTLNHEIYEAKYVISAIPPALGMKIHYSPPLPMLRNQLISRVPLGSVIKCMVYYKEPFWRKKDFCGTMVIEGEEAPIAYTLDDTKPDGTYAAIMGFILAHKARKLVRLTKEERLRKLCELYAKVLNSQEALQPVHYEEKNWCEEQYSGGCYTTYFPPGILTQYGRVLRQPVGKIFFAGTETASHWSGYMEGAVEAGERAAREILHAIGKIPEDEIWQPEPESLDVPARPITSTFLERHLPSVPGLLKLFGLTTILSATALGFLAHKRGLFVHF

[11] = biological target: T3, Amine oxidase [flavin-containing] B; assay: Competitive inhibition of mouse brain mitochondrial MAO-B using kynuramine as substrate by Lineweaver-Burk plot analysis
[12] = biological target: T1, Amine oxidase [flavin-containing] B; assay: Time-dependent inhibition of recombinant human MAO-B expressed in baculovirus infected BTI insect cells at 8 uM pretreated with compound up to 30 mins followed by addition of benzylamine as substrate
[13] = biological target: T1, Amine oxidase [flavin-containing] B; assay: Reversible inhibition of recombinant human MAO-B expressed in baculovirus infected BTI insect cells assessed as residual activity at 8 uM preincubated for 10 mins followed by addition of 2 mM of benzylamine as substrate and further addition of 2 mM of benzylamine at the end of first reaction; conditions: read-out: Activity
[14] = biological target: T1, Amine oxidase [flavin-containing] B; assay: Inhibition of recombinant human MAO-B expressed in baculovirus infected BTI insect cells assessed as residual activity at 8 uM preincubated for 10 mins followed by addition of 2 mM of benzylamine as substrate; conditions: read-out: Activity
[15] = biological target: T4, Amine oxidase [flavin-containing] A (Mus musculus, UniProt Q64133); assay: Inhibition of mouse MAO-A preincubated for 15 mins followed by addition of kynuramine as substrate measured after 30 mins by fluorometric analysis
T4 sequence (Q64133 whole entry): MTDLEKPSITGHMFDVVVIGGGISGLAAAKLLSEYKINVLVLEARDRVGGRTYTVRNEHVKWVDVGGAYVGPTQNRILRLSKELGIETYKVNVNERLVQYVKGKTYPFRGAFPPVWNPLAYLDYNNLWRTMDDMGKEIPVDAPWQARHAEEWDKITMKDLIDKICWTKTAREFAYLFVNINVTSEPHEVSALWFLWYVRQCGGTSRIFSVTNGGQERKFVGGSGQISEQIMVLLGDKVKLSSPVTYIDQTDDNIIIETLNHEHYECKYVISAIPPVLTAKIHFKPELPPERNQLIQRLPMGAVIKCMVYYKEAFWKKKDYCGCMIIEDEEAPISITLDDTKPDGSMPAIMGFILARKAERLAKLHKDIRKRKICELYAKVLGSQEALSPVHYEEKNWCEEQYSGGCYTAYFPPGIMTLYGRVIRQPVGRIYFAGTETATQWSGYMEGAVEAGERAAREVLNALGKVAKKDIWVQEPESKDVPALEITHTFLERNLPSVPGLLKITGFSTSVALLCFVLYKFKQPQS

Oc1ccc2c(c1)OC[C@H]1c3cc4c(cc3O[C@@H]21)OCO4 [MAACKIAIN]
activity at 1.5 µM [1]: 66%
activity at 1.5 µM [2]: 28.7%
IC50 [3]: 0.68 µM
IC50 [4]: 85.8 µM
Ratio IC50 (Homo sapiens): 126
TDI [5]: Not Active
Ki [6]: 0.054 µM

COc1ccc2c(c1O)OC[C@H]1c3cc4c(cc3O[C@@H]21)OCO4
activity at 20 µM [7]: 54.9%
IC50 [3]: 10.3 µM
IC50 [4]: 20.3 µM
TDI [8]: Not Active
Ratio IC50 (Homo sapiens): 2
activity at 20 µM [9]: 26.3%

CC(C)=CCc1c(O)cc(O)c2c1O[C@H](c1ccc(O)cc1)CC2=O
IC50 [3]: > 100 µM
IC50 [4]: 38.8 µM
Ratio IC50 (Homo sapiens): < 0.39

COc1ccc(-c2coc3cc(O)c(CC=C(C)C)c(O)c3c2=O)cc1
IC50 [10]: 0.8 µM

C=C(C)[C@H](O)CC/C(C)=C/COc1ccc2ccc(=O)oc2c1
IC50 [10]: 0.5 µM

CC(C)=CCc1c(O)c(CC=C(C)C)c2c(c1O)C(=O)C[C@@H](c1ccc(O)cc1O)O2
IC50 [3]: > 100 µM
IC50 [4]: > 100 µM

COC(=O)/C=C/C=C/c1ccc2c(c1)OCO2 [METHYL PIPERATE]
Ki [11]: 1.3 µM

CC(C)=CCC/C(C)=C/COc1ccc2ccc(=O)oc2c1
IC50 [10]: 0.6 µM

O=c1c(-c2ccc(O)cc2)coc2cc(O)cc(O)c12 [GENISTEIN]
TDI [12]: Not Active
activity at 8 µM [13]: 59.5%
activity at 8 µM [14]: 25.3%

COc1ccc(-c2coc3cc(O)ccc3c2=O)cc1 [FORMONONETIN]
IC50 [3]: 25.8 µM
IC50 [4]: 31.2 µM
Ratio IC50 (Homo sapiens): 1.2
IC50 [15]: 21.2 µM
IC50 [10]: 11 µM
